From publication PMC7496931, “Activation of Sirtuin 2 Inhibitors Employing Photoswitchable Geometry and Aqueous Solubility” (Chemmedchem, 2020)
Read-outs that look alike come from different tables or passages of the source.

What was measured:
Type in all cases: biochemical
Sirt2 = target: T1, Sirt2 (Homo sapiens, UniProt Q8IXJ6); experiment: Fluorescence-based ZMAL deacetylase activity assay, Sirt2
T1 construct: Expression and purification of Sirt1_133−747, Sirt2_56−356, and Sirt3_118−395 was carried out as described previously; made in house
T1 sequence (Q8IXJ6 56-356): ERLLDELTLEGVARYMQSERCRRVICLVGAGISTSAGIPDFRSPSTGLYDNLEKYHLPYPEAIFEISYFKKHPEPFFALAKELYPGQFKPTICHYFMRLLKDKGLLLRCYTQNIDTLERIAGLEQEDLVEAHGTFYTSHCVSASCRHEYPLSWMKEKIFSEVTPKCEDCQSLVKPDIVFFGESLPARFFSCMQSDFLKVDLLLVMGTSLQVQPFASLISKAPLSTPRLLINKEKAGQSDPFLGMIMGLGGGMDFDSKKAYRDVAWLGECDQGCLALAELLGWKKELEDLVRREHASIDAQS
Protocol: (§1) The effect of the compounds on deacetylase activity of three human sirtuin isotypes (Sirt1–3) was investigated by a homogeneous fluorescence‐based assay, using (Z)‐Lys(acetyl)‐AMC (ZMAL) as substrate. In order to determine the impact of photoisomerization, the respective compounds were irradiated (365 nm, 5 min) in DMSO prior to incubation in the enzyme assay mixture. The results of the irradiated probes were finally compared to non‐irradiated measurements.
(§2) Cloning, expression and purification of recombinant proteins: Expression and purification of Sirt1_133−747, Sirt2_56−356, and Sirt3_118−395 was carried out as described previously.27 Identity and purity were verified by SDS‐PAGE.
(§3) Fluorescence‐based activity assay: The inhibitory effect of compounds on Sirt1–3 was detected via a previously reported fluorescence‐based assay.29 The synthetic substrate (Z)‐Lys(acetyl)‐AMC (ZMAL) is deacetylated by sirtuins, followed by tryptic digestion and thereby release of 7‐aminomethylcoumarin, leading to a fluorescent readout. Inhibition was determined by comparing percentage substrate conversion to a DMSO control after subtraction of the blank fluorescence signal. All compounds were tested at 100 or 50 μM and 10 μM respectively. […] IC50 values were calculated with OriginPro 9.0 G using a non‐linear regression to fit the dose response curve (Figure S6). An enzyme‐free blank control and a 100 % conversion control using AMC instead of ZMAL were measured as well. Inhibition measurements were performed in biological duplicates for all compounds. […]
(§4) Fluorescence-Based Activity Assay (ZMAL-Assay)
(§5) The influence of the synthesized compounds on the deacetylase activity of the class I sirtuins Sirt1–3 was determined in a homogenous fluorescence-based enzyme assay, using the artificial substrate Z-(Ac)Lys-AMC (ZMAL). ZMAL is processed by sirtuins yielding Z-Lys-AMC.
(§6) The latter is subsequently cleaved by tryptic digestion, releasing 7-amino-4-methylcoumarin (AMC), excitation of which leads to a fluorescent read out (λex=390 nm; λem=460 nm). Instead, […]
(§7) contribute to the fluorescence signal. Therefore, the fluorescence intensity is proportional to the activity of the respective sirtuin.
(§8) After subtraction of the blank fluorescence signal (without enzyme) from the signal of the respective probe, the residual signal intensity is related to a 100 % conversion control (AMC), […]
(§9) yielding the percentage substrate conversion. Comparison of the determined substrate conversion with a no-inhibition DMSO control yields the percentage inhibition at the respective […]
(§10) For determination of IC50, inhibitory activity of the respective compound was determined at 8 to 10 distinct concentrations. The measured values were analysed by a non-linear fit to the dose-response curve using a four parameter logistic model (Figure S6):
(§11) Figure S6: Non-linear regression of the dose-response curves of compounds 15c and 15f at the thermal equilibrium (∆, black) and after 5 minutes of 365 nm irradiation (red). […]
(§12) A maximal polarization control using just DMSO and a minimal polarization control using 1 µL of the 400 µM solution of 22 instead of inhibitor were performed as well as a blank control containing 1 µL of DMSO in 19 µL assay buffer. The mixture was incubated 10 min at 37 °C

Sirt1 = target: T2, Sirt1 (Homo sapiens, UniProt Q96EB6); experiment: Fluorescence-based ZMAL deacetylase activity assay, Sirt1
T2 construct: Expression and purification of Sirt1_133−747, Sirt2_56−356, and Sirt3_118−395 was carried out as described previously; made in house
T2 sequence (Q96EB6 133-747): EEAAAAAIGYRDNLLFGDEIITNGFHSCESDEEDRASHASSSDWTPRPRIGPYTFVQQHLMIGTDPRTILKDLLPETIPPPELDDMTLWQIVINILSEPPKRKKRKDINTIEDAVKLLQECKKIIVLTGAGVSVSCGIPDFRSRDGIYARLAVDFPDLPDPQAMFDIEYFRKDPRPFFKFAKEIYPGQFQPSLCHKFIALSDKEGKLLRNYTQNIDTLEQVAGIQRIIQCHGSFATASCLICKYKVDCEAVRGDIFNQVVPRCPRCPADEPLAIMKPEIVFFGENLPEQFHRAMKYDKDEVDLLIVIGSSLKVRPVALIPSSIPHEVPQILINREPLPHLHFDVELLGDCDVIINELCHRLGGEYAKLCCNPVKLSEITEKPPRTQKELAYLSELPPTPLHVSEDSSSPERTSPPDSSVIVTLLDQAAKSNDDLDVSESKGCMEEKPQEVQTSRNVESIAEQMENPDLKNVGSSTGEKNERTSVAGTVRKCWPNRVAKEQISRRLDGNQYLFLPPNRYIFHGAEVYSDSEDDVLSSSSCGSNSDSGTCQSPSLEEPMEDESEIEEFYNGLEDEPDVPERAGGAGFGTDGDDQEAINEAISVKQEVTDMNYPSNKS
Protocol: as §1, §2, §3, §4, §5, §6, §7, §8, §9, §10, §11
A maximal polarization control using just DMSO and a minimal polarization control using 1 µL of the 400 µM solution of 22 instead of inhibitor were performed as well as a blank control containing 1 µL of DMSO in 19 µL assay buffer. The mixture was incubated 10 min at 37 °C […]
(1 picture or pasted object on this page, not shown here)

Sirt3 = target: T3, Sirt3 (Homo sapiens, UniProt Q9NTG7); experiment: Fluorescence-based ZMAL deacetylase activity assay, Sirt3; parameters: key to Sirt3 inhibition Δ (class) / Sirt3 inhibition PSS [365 nm] (class): n.i.: no inhibition detected (<30 % @ 100 μM); u.i.: unspecific interactions
T3 construct: Expression and purification of Sirt1_133−747, Sirt2_56−356, and Sirt3_118−395 was carried out as described previously; made in house
T3 sequence (Q9NTG7 118-395): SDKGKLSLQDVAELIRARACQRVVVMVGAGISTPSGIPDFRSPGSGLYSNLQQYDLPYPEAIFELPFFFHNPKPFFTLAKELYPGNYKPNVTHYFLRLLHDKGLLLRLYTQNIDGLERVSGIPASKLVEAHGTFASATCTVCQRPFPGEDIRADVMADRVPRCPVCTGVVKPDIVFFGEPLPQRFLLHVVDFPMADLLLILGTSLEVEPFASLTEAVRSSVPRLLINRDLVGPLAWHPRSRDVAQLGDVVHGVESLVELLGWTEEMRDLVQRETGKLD
Protocol: as §1, §2, §3, §4, §5, §6, §7, §8, §9, §10, §11, §12

[1] = PSS after 5 min UV irradiation (365 nm), read-out: Sirt2 inhibition PSS [365 nm], percent inhibition (converted)
[2] = thermal equilibrium (Δ), read-out: Sirt2 inhibition Δ, percent inhibition (converted)
[3] = PSS after 5 min UV irradiation (365 nm), read-out: Sirt1 inhibition PSS [365 nm] (class)
[4] = thermal equilibrium (Δ), read-out: Sirt1 inhibition Δ (class)
[5] = PSS after 5 min UV irradiation (365 nm)
[6] = PSS after 5 min UV irradiation (365 nm), read-out: Sirt2 inhibition PSS [365 nm], IC50
[7] = thermal equilibrium (Δ), read-out: Sirt2 inhibition Δ, IC50
[8] = PSS after 5 min UV irradiation (365 nm), read-out: Sirt2 inhibition PSS [365 nm], percent inhibition
[9] = thermal equilibrium (Δ), read-out: Sirt2 inhibition Δ, percent inhibition
[10] = PSS after 5 min UV irradiation (365 nm), read-out: Sirt3 inhibition PSS [365 nm], percent inhibition
[11] = thermal equilibrium (Δ), read-out: Sirt3 inhibition Δ, percent inhibition

Row | SMILES | inhibition at 10 µM (Sirt2; [1]) [%] | inhibition at 10 µM (Sirt2; [2]) [%] | inhibition at 100 µM (Sirt1; [3]) [%] | inhibition at 100 µM (Sirt1; [4]) [%] | Sirt3 inhibition PSS [365 nm] (class) (Sirt3; [5]) | Sirt3 inhibition Δ (class) (Sirt3; thermal equilibrium (Δ)) | IC50 (Sirt2; [6]) [µM] | IC50 (Sirt2; [7]) [µM] | inhibition at 100 µM (Sirt2; [8]) [%] | inhibition at 100 µM (Sirt2; [9]) [%] | inhibition at 100 µM (Sirt3; @ 100 μM, PSS after 5 min UV irradiation (365 nm), read-out: Sirt3 inhibition PSS [365 nm], percent inhibition) [%] | inhibition at 10 µM (Sirt1; @ 10 μM, PSS after 5 min UV irradiation (365 nm), read-out: Sirt1 inhibition PSS [365 nm], percent inhibition) [%] | inhibition at 10 µM (Sirt3; [10]) [%] | inhibition at 10 µM (Sirt3; [11]) [%] | inhibition at 100 µM (Sirt1; @ 100 μM, PSS after 5 min UV irradiation (365 nm), read-out: Sirt1 inhibition PSS [365 nm], percent inhibition) [%] | inhibition at 100 µM (Sirt1; @ 100 μM, thermal equilibrium (Δ), read-out: Sirt1 inhibition Δ, percent inhibition) [%]
1 | CCCCCCCCCCCC(=O)Nc1c(C)cc(/N=N/c2cncc(C(N)=O)c2)cc1C [9 f] | 65 | 46 | < 30 | < 30 | u.i. | u.i. | – | – | – | – | – | – | – | – | – | –
2 | CCCCCCCCCCCCCC(=O)Nc1c(C)cc(/N=N/c2cncc(C(N)=O)c2)cc1C [9 g] | – | – | < 30 | < 30 | u.i. | u.i. | 0.9 ± 0.2 | 2.2 ± 0.3 | – | – | – | – | – | – | – | –
3 | Cc1cc(/N=N/c2cncc(C(N)=O)c2)cc(C)c1NC(=O)c1ccccc1 [9 h] | – | – | < 30 | < 30 | – | n.i. (n.i.: no inhibition detected (<30 % @ 100 μM)) | – | – | 52 | 27 | 32 | – | – | – | – | –
4 | Cc1cc(/N=N/c2cncc(C(N)=O)c2)cc(C)c1NC(=O)c1ccc(F)cc1 [9 i] | 15 | 15 | < 30 | < 30 | n.i. (n.i.: no inhibition detected (<30 % @ 100 μM)) | n.i. (n.i.: no inhibition detected (<30 % @ 100 μM)) | – | – | – | – | – | – | – | – | – | –
5 | Cc1cc(/N=N/c2cncc(C(N)=O)c2)cc(C)c1NC(=O)c1ccc(-c2cccs2)cc1 [9 j] | – | – | < 30 | < 30 | u.i. | u.i. | – | – | 59 | 80 | – | – | – | – | – | –
6 | Cc1cc(/N=N/c2cncc(C(N)=O)c2)cc(C)c1NC(=O)C12CC3CC(CC(C3)C1)C2 [9 k] | – | – | < 30 | < 30 | n.i. (n.i.: no inhibition detected (<30 % @ 100 μM)) | n.i. (n.i.: no inhibition detected (<30 % @ 100 μM)) | – | – | 71 | 43 | – | – | – | – | – | –
7 | CC(C)(C)OC(=O)c1ccc(/N=N/c2cncc(C(N)=O)c2)cc1 [15 a] | – | – | – | < 30 | – | – | 6.8 ± 0.4 | 6 ± 1.1 | – | – | – | 7 | 45 | 42 | – | –
8 | CC(C)(C)OC(=O)Cc1ccc(/N=N/c2cncc(C(N)=O)c2)cc1 [15 b] | – | – | – | – | – | – | 6.9 ± 0.6 | 3.9 ± 0.2 | – | – | – | – | 30 | 58 | 44 | 35
